Data published in publication PMC8151276, “An Integrated Approach toward NanoBRET Tracers for Analysis of GPCR Ligand Engagement” (Molecules, 2021).

Target: T1, ADRA1B (Homo sapiens, UniProt P35368)
T1 construct: purchased Promega (in-house HiBiT-GPCR construct library, NanoBRET)
T1 sequence (P35368 1-520): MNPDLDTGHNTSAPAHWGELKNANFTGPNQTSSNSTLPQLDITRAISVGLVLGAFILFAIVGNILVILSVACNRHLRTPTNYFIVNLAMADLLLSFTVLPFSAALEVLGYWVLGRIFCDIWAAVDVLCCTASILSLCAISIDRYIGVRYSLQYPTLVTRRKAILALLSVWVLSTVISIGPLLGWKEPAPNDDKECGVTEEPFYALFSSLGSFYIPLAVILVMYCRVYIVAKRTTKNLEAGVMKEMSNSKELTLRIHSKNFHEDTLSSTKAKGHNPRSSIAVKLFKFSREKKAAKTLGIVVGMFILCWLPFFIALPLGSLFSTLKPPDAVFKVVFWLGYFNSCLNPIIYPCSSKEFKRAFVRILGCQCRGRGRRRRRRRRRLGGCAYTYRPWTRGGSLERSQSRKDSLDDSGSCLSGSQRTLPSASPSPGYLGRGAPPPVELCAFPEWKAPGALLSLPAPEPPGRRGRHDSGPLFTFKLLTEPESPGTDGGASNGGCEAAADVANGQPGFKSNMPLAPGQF
Test: NanoBRET screen HiBiT-ADRA1B in HEK293
Format: binding
Method: Each tracer candidate was screened across the entire library of HiBiT-GPCR constructs using NanoBRET as the detection modality. As depicted in Figure 4A, the specificity of interactions was evaluated through decrease in BRET due to competitive displacement of a bound tracer by excess parental compound. Each tracer was analyzed for binding to each HiBiT-GPCR fusion in the absence and in the presence of competing parental compound. Briefly, HEK293 cells were transfected with HiBiT-GPCR constructs diluted into promoterless DNA to reduce expression and maximize translocation to the cell surface. Each tracer candidate was then screened at concentrations of 1 μM and 0.1 μM across cells expressing these fusions. Cells were treated for 1.5 h with tracer either alone or in the presence of 20 μM competing parental compound (i.e., control). BRET was measured upon addition of purified LgBiT and subsequent complementation with HiBiT genetically fused to a GPCR. The specificity of interactions was assessed through a decrease in BRET signal due to competitive displacement of the bound tracer. To further gauge the robustness of these interactions, the fold response over the control (i.e., BRETtracer/BRETcontrol) was calculated. We chose a 1.5-fold response, which translates to ≥7-fold signal over noise as the minimal threshold required to score an interaction as positive.
HiBiT-GPCR DNA constructs were diluted in 10 mM Tris pH 8 to a final concentration of 0.01 μg/μL, arrayed in 96-well plates and stored at −20 °C. For transfection, HEK293 cells were suspended in Opti-MEM (without phenol red) supplemented with 2% fetal bovine serum (Seradigm) and 100 units/mL penicillin–streptomycin (Gibco) at a final concentration of 220,000 cells/mL and dispensed into white 96-well plates at 90 μL/well. Subsequent transfections and screens were carried using an Agilent Bravo Automated Liquid Handling Platform. First, the 96-well HiBiT DNA arrays were diluted 25-fold in Opti-MEM (without serum or phenol red) to a final concentration of 0.0004 μg/μL and 20 μL of the diluted DNAs were transferred into new 96-well plates. Next, promoterless carrier DNA (1 μg/μL) was diluted 25-fold (0.04 μg/μL) and then dispensed into the diluted arrays at 20 μL/well. Following brief mixing, Viafect transfection reagent (Promega) diluted 16-fold into Opti-MEM was dispensed into the plates at 40 μL/well. After mixing by pipetting, plates were incubated for 10 min on the pipetting station deck. The DNA-transfection reagent complexes were then added to plates containing cells. To facilitate the screen, 10 μL of DNA-transfection reagent complexes were added in duplicates to the top 4 and bottom 4 rows, resulting in two identical 48-well arrays per plate. Plates with transfected cells were incubated for 18–20 h at 37 °C/5% CO2. A screen of each tracer across the entire library using two different concentrations requires duplicate plates of transfected cells. Depending on the number of tracers being screened, transfections can be scaled up using the same ratios. The next day, for each tracer, four 20× screening solutions in tracer dilution buffer (Promega) were prepared: two duplicates at final concentration of 20 μM and two duplicates at a final concentration of 2 μM. […] The four resulting solutions were diluted 4-fold in Opti-MEM without serum or phenol red to generate 5× solutions (5 µM and 0.5 µM tracer +/− 100 μM competing compound). To screen the library, a BioTek MultiFlo FX liquid dispenser was used to dispense 22.5 µL of tracer solution to the top 4 rows and 22.5 µL tracer + competing compound solution to the 4 bottom rows. Plates were briefly mixed on an orbital shaker and incubated for 1.5 h at room temperature. […] Plates were briefly mixed on an orbital shaker and incubated for 15 min to allow complementation.

Structure (SMILES) | NanoBRET Fold Response (ADRA1B, tracer 0.1μM) | NanoBRET Fold Response (ADRA1B, tracer 1μM) | further results
CCOC(=O)c1cc(C#N)c(N2CCC(C(=O)NS(=O)(=O)Cc3ccccc3/C=C/C(=O)NCCNC(=O)CCc3ccc4n3[B-](F)(F)[N+]3=C(c5ccc[nH]5)C=CC3=C4)CC2)nc1C [AZD1283-1-NB590] |  |  | NanoBRET Fold Response (ADRA1B, 0.1μM): 1.08; NanoBRET Fold Response (ADRA1B, 1μM): 1.06
N#CN/C(=N\CCNC(=O)c1ccc(N)cc1)NCCCOc1cccc(CN2CCCCC2)c1 [Aminopotentidine (unmodified)] |  |  | NanoBRET Fold Response (ADRA1B, other tracers/Aminopotentidine (unmodified), 0.1μM): 1.03; NanoBRET Fold Response (ADRA1B, other tracers/Aminopotentidine (unmodified), 1μM): 0.99
N#CN=C(NCCCOc1cccc(CN2CCCCC2)c1)NCCNC(=O)CCOCCOCCOCCOCCNC(=O)CCc1ccc2n1[B-](F)(F)[N+]1=C(c3ccc[nH]3)C=CC1=C2 [Aminopotentidine-2-NB590] | 1.10 | 1.01 | 
CN(C)CCC=C1c2ccccc2CCc2ccc(C(=O)NCCNC(=O)CCOCCOCCOCCOCCNC(=O)CCc3ccc4n3[B-](F)(F)[N+]3=C(c5ccc[nH]5)C=CC3=C4)cc21 [Amitriptyline-a-2-NB590] |  |  | NanoBRET Fold Response (tracer at 0.1μM): 1.19; NanoBRET Fold Response (tracer at 1μM): 1.46
CN(C)CCC=C1c2ccccc2CCc2ccc(C(=O)NCCNC(=O)CCOCCOCCOCCOCCNC(=O)CCc3ccc4n3[B-](F)(F)[N+]3=C(c5ccc[nH]5)C=CC3=C4)cc21 [Amitriptyline-b-2-NB590] |  |  | NanoBRET Fold Response (tracer at 0.1μM, listed as amitriptyline-b-2-NB590): 1.73; NanoBRET Fold Response (tracer at 1μM, listed as amitriptyline-b-2-NB590): 1.67
CN(CCC=C1c2ccccc2CCc2ccccc21)C(=O)CCOCCOCCOCCOCCNC(=O)CCc1ccc2n1[B-](F)(F)[N+]1=C(c3ccc[nH]3)C=CC1=C2 [Amitriptyline-e-2-NB590] |  |  | NanoBRET Fold Response (tracer at 1μM): 1.04
COc1ccc2c(n1)c(CCNC(C)=O)cn2CCNC(=O)CCc1ccc2n1[B-](F)(F)[N+]1=C(c3ccc[nH]3)C=CC1=C2 [Azamelatonin-1-NB590] |  |  | NanoBRET Fold Response (0.1μM tracer): 0.97; NanoBRET Fold Response (1μM tracer): 0.88
COc1ccc2[nH]c(-c3ccc(CNC(=O)CCOCCOCCOCCOCCNC(=O)CCc4ccc5n4[B-](F)(F)[N+]4=C(c6ccc[nH]6)C=CC4=C5)cc3)c(CCNC(C)=O)c2n1 [AzomelatoninICO9-2-NB590] |  |  | NanoBRET Fold Response (0.1μM tracer): 0.91; NanoBRET Fold Response (1μM tracer): 0.97
O=C(CCOCCOCCOCCOCCNC(=O)CCc1ccc2n1[B-](F)(F)[N+]1=C(c3ccc[nH]3)C=CC1=C2)NCCCN1CCN(C2=Nc3cc(Cl)ccc3Nc3ccccc32)CC1 [Clozapine-a-2-NB590] |  |  | NanoBRET Fold Response (ADRA1B, 0.1μM tracer): 1.65; NanoBRET Fold Response (ADRA1B, 1μM tracer): 1.52
O=C(CCOCCOCCOCCOCCNC(=O)CCc1ccc2n1[B-](F)(F)[N+]1=C(c3ccc[nH]3)C=CC1=C2)NCCCN1CCN(C2=Nc3ccccc3Oc3ccc(Cl)cc32)CC1 [Loxapine-a-2-NB590] | 1.78 | 1.54 | 
COc1ccccc1N1CCN(CCCCN2C(=O)c3ccc(CNC(=O)CCOCCOCCOCCOCCNC(=O)CCc4ccc5n4[B-](F)(F)[N+]4=C(c6ccc[nH]6)C=CC4=C5)cc3C2=O)CC1 [NAN-190-2-NB590] | 1.80 | 1.59 | 
COc1ccccc1N1CCN(CCCCN2C(=O)c3ccc(CNC(=O)CCOCCNC(=O)c4ccc(CNC(=O)CCc5ccc6n5[B-](F)(F)[N+]5=C(c7ccc[nH]7)C=CC5=C6)cc4)cc3C2=O)CC1 [NAN-190-3-NB590] | 1.70 | 1.72 | 
O=C(CCc1ccc2n1[B-](F)(F)[N+]1=C(c3ccc[nH]3)C=CC1=C2)NCc1ccc(C(=O)NCCOCCC(=O)N[C@@H]2CC[C@@]3(O)[C@H]4Cc5ccc(O)c6c5[C@@]3(CCN4CC3CC3)[C@H]2O6)cc1 [Naltrexone-3-NB590] | 0.53 | 0.79 | 
Cc1cc2c(s1)Nc1ccccc1N=C2N1CCN(CCCNC(=O)CCOCCOCCOCCOCCNC(=O)CCc2ccc3n2[B-](F)(F)[N+]2=C(c4ccc[nH]4)C=CC2=C3)CC1 [Olanzapine-a-2-NB590] | 1.26 | 1.98 | 
O=C(CCc1ccc2n1[B-](F)(F)[N+]1=C(c3ccc[nH]3)C=CC1=C2)NCc1ccc(C(=O)NCCOCCOCCNCC(O)COc2cccc3ccccc23)cc1 (stereo not shown) [Propranolol-3-NB590] |  |  | NanoBRET Fold Response (ADRA1B, 0.1μM): 1.14; NanoBRET Fold Response (ADRA1B, 1μM): 1.10
O=C(CCc1ccc2n1[B-](F)(F)[N+]1=C(c3ccc[nH]3)C=CC1=C2)NCCOCCOCCNC(=O)OCCOCCN1CCN(C2=Nc3ccccc3Sc3ccccc32)CC1 [Quetiapine-a-2-NB590] | 1.52 | 1.59 | 
CC(C)N(CC[C@H](c1ccccc1)c1cc(CCNC(=O)CCOCCOCCOCCOCCNC(=O)CCc2ccc3n2[B-](F)(F)[N+]2=C(c4ccc[nH]4)C=CC2=C3)ccc1O)C(C)C [Tolterodine-2-NB590] | 1.16 | 1.06 | 
CC(C)N(CC[C@H](c1ccccc1)c1cc(CCNC(=O)c2ccc(CNC(=O)CCc3ccc4n3[B-](F)(F)[N+]3=C(c5ccc[nH]5)C=CC3=C4)cc2)ccc1O)C(C)C [Tolterodine-BZ-NB590] | 1.17 | 1.05 | 
CCCn1c(=O)c2[nH]c(-c3ccc(OCC(=O)NCCNC(=O)CCOCCNC(=O)c4ccc(CNC(=O)CCc5ccc6n5[B-](F)(F)[N+]5=C(c7ccc[nH]7)C=CC5=C6)cc4)cc3)nc2n(CCC)c1=O [XAC-3-NB590] | 1.05 | 1.17 | 
